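Protocol summary: plate cells (96-well), add compound at 5 concentrations, incubate 48 h, interpolate endpoints linearly. Abbreviation: GI50, concentration required for 50% inhibition of growth. TGI: total growth inhibition.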
Tests used:
Assay in all cases: growth of human tumour cells (NCI), 48 h
EKVX NSCLC = tested on: EKVX NSCLC
LOX IMVI melanoma = tested on: LOX IMVI melanoma
PC-3 prostate = tested on: PC-3 prostate
T-47D breast = tested on: T-47D breast
MOLT-4 leukemia = tested on: MOLT-4 leukemia
RPMI-8226 leukemia = tested on: RPMI-8226 leukemia
SF-268 CNS = tested on: SF-268 CNS
SN12C renal = tested on: SN12C renal
SNB-19 CNS = tested on: SNB-19 CNS
HT29 colon = tested on: HT29 colon

SMILES	GI50 (EKVX NSCLC) [µM]	TGI (EKVX NSCLC) [µM]	GI50 (LOX IMVI melanoma) [µM]	TGI (LOX IMVI melanoma) [µM]	GI50 (PC-3 prostate) [µM]	TGI (PC-3 prostate) [µM]	GI50 (T-47D breast) [µM]	TGI (T-47D breast) [µM]	GI50 (MOLT-4 leukemia) [µM]	TGI (MOLT-4 leukemia) [µM]	GI50 (RPMI-8226 leukemia) [µM]	TGI (RPMI-8226 leukemia) [µM]	GI50 (SF-268 CNS) [µM]	TGI (SF-268 CNS) [µM]	GI50 (SN12C renal) [µM]	TGI (SN12C renal) [µM]	GI50 (SNB-19 CNS) [µM]	TGI (SNB-19 CNS) [µM]	GI50 (HT29 colon) [µM]	TGI (HT29 colon) [µM]
COc1cc2c3c(n(CCCN(C)C)c(=O)c2cc1OC)-c1ccccc1C3=O	> 43.7	> 72.7	4.66	19.2	9.02	> 48.7	30.8	> 100	0.463	1.73	0.238	1.53	7.69	> 100	7.16	72.3	8.28	> 71.3	0.738	16.6
N#C/C(=C/N1CCN(C(=O)c2ccco2)C1=S)C(=O)c1ccccc1	17.8	48	17.9	> 100	31.7	> 100	7.16	> 100	43.7	> 100	5.56	> 100	31.2	93.3	8.64	25	39.7	> 100	30.5	> 100
COc1cc2ncn(-c3cc(OCCc4ccccc4)c(C(N)=O)s3)c2cc1OC	> 25	> 25	> 25	> 25	> 25	> 25	> 25	> 25	12.4	> 25	> 25	> 25	> 25	> 25	24.9	> 25	> 25	> 25	13.6	> 25
O=C(COc1ccc(/C=C2\CSc3ccccc3C2=O)cc1)Nc1nccs1	17.3	31.1	1.77	3.41	3.97	28.9	13.5	42.4	–	–	2.13	6.7	3.61	13.6	5.8	29.8	13.4	26.2	4.48	16.2
Cn1cc(C2=C(c3cn(CCCCCN)c4ccccc34)C(=O)NC2=O)c2ccccc21	–	–	4.9	13.5	13.8	> 25	6.23	21.6	8.09	> 22.9	9.24	> 25	12.5	> 25	9.33	> 25	> 25	> 25	7.39	> 22.8
O=C(Nc1ccc(-n2cc(-c3ccncc3)c(-c3ccc(Cl)c(O)c3)n2)cc1)Nc1ccc(Cl)c(C(F)(F)F)c1	3.05	14.6	1.44	2.75	1.86	9.63	2.39	6.54	1.14	6.77	–	–	1.65	3.87	1.59	3.86	1.72	4.7	–	–
CC(=O)/C=C/c1ccc(C#Cc2ccccc2)s1	17.7	31.6	18	31.9	15.7	29	11.4	28.4	–	–	20.7	38	17.4	48.9	17.1	31.4	12.7	25.9	12	25.2
C[C@]12CC[C@@H]3c4ccc(O)cc4CC[C@H]3[C@@H]1CC[C@@H]2NS(=O)(=O)c1cccc(F)c1	–	–	3.09	10.8	2.96	14	3.82	14.8	2.5	9.59	3.65	19.6	4.1	16	2.35	6.39	5.5	18.3	3.2	10.1
CCC(C)(C)c1ccc(OCCCCCCN2CCNCC2)cc1	9.73	27.1	1.76	3.21	2.6	13.8	1.72	3.78	2.03	5.11	1.9	4.41	3.78	14	3.48	13.5	–	–	1.86	4.72
O=[N+]([O-])c1ccc2c(c1)C(c1ccccc1Cl)=Nc1cn[nH]c1N2	–	–	18.1	> 25	14.3	> 25	14	> 25	10.5	> 25	> 24.2	> 25	> 23.9	> 25	19.8	> 25	> 25	> 25	19.2	> 25
N=C(N)SCc1cccc(-c2nc3ccccc3c(=O)o2)c1	–	> 100	–	> 100	–	> 100	–	> 100	–	–	–	> 100	–	> 100	–	> 100	–	> 100	–	> 100
